Assay results: PMC7400437, “Synthesis and Evaluation of the Antibacterial Activities of 13-Substituted Berberine Derivatives” (Antibiotics, 2020)
In brackets after ≈: the same amount, converted by molar mass.

Tests used:
B. subtilis [1] = test: Macromolecule synthesis inhibition assay by fluorescent microscopy (morphological changes); conditions: 4 × MIC, 2 h, 37 °C; for Observed Morphology: DNA, B. subtilis: DAPI
V. alginolyticus = test: as above; conditions: 4 × MIC, 2 h, 37 °C; for Observed Morphology: DNA, V. alginolyticus: DAPI; for Observed Morphology: cell membrane, V. alginolyticus: FM4-64FX
S. aureus = test: MIC, antimicrobial activity assay; type: cell-based, Staphylococcus aureus (ATCC 6538P); conditions: Staphylococcus aureus; Table 1 first screening; read-out: Minimal Inhibitory Concentration (MIC) S. aureus
B. subtilis [2] = test: MIC, antimicrobial activity assay; type: cell-based, Bacillus subtilis (ATCC 6633); conditions: Bacillus subtilis; Table 1 first screening; read-out: Minimal Inhibitory Concentration (MIC) B. subtilis
E. coli = test: MIC, antimicrobial activity assay; type: cell-based, Escherichia coli (ATCC 8739); conditions: Escherichia coli; Table 1 first screening; read-out: Minimal Inhibitory Concentration (MIC) E. coli
P. aeruginosa = test: MIC, antimicrobial activity assay; type: cell-based, Pseudomonas aeruginosa (ATCC 9027); conditions: Pseudomonas aeruginosa; Table 1 first screening; read-out: Minimal Inhibitory Concentration (MIC) P. aeruginosa
M. smegmatis = test: microbe, parasite or virus in culture; type: cell-based, Mycobacterium smegmatis (mc2155, ATCC 700084); conditions: Mycolicibacterium smegmatis, 72 h, read-out: Minimal Inhibitory Concentration (MIC) M. smegmatis
C. albicans = test: MIC, antifungal activity assay; type: cell-based, Candida albicans (DSM 10697); conditions: Candida albicans; Table 1 first screening; 35 °C, 24 h; read-out: Minimal Inhibitory Concentration (MIC) C. albicans
[3] = test system: BEAS (human airway epithelial cells); test: Cytotoxic assay on human cells (resazurin); type: cell-based; conditions: Epithelial cell, 48 h, means +/−SD, read-out: Inhibitory Concentration 50 (IC50) on cell viability, BEAS
Procedure: (§1) The toxicity of berberine and berberine’s derivatives on human cells was evaluated using resazurin assay as previously described. Human cells used were BEAS (ATCC CRL-9609), Caco2 (ATCC HTB-37) and HepG2 (ATCC HB-8065) corresponding respectively to human airway epithelial cells, intestinal epithelial cells and liver cells. Cells were cultured in Dulbecco’s modified essential medium (DMEM) supplemented with 10% fetal bovine serum (FBS), 1% L-glutamine and 1% antibiotics (Thermo Fisher Scientific, Illkirch-Graffenstaden, France). Cells were routinely grown on 25 cm^2 flasks and maintained in a 5% CO2 incubator at 37 °C. For toxicity assay, cells were detached using trypsin–EDTA solution (Thermo Fisher Scientific), counted using Mallasez counting chamber and seeded into 96-well cell culture plates (Greiner bio-One, Dominique Dutscher, Brumath, France) at approximately 10,000 cells per well. The cells were left to grow for 48–72 h at 37 °C in a 5% CO2 incubator until they reached confluence. Media from wells was then aspirated and cells were treated with 100 µL of culture media containing increasing concentrations of berberine or berberine’s derivatives obtained by serial dilution (from 0 to 50 µM, 1:2 dilution), DMSO (0.5% DMSO final concentration) was used as negative control. After 48 h incubation at 37 °C in a 5% CO2 incubator, cell viability was evaluated using resazurin based in vitro toxicity assay kit (Sigma-Aldrich) following manufacturer’s instructions. Briefly, cell wells were emptied, and cells were treated with 100 µL of resazurin diluted 1:10 in sterile PBS containing calcium and magnesium (PBS^++, pH 7.4). After 4 h incubation at 37 °C, fluorescence intensity (excitation wavelength of 530 nm/emission wavelength of 590 nm) was measured using Synergy Mx microplate reader (Biotek). The fluorescence values were normalized by the controls (DMSO treated cells) and expressed as percent viability. The IC50 values of berberine and berberine’s derivatives on cell viability (i.e., the concentration of derivative causing a reduction of 50% of the cell viability) were calculated using GraphPad® Prism 7 software (San Diego, CA, USA). t-Test and two ways ANOVA analyses were used to address the significant differences between mean values with significance set at p < 0.05.

[4] = test system: Caco2 (human intestinal epithelial cells); test: Cytotoxic assay on human cells (resazurin); type: cell-based; conditions: Homo sapiens, Caco-2, 48 h, read-out: Inhibitory Concentration 50 (IC50) on cell viability, Caco2
Procedure: as §1

[5] = test system: HepG2 (human liver cells); test: Cytotoxic assay on human cells (resazurin); type: cell-based; conditions: HepG2, 48 h, read-out: Inhibitory Concentration 50 (IC50) on cell viability, HEPG2
Procedure: as §1

SMILES | Observed Morphology: cell elongation/enlargement, B. subtilis (B. subtilis [1]) | Observed Morphology: cells connected, B. subtilis (B. subtilis [1]) | Observed Morphology: DNA, B. subtilis (B. subtilis [1]) | Observed Morphology: cell membrane, B. subtilis (B. subtilis [1]; FM4-64FX) | Observed Morphology: cell elongation, V. alginolyticus (V. alginolyticus) | Observed Morphology: cells connected, V. alginolyticus (V. alginolyticus) | Observed Morphology: DNA, V. alginolyticus (V. alginolyticus) | Observed Morphology: cell membrane, V. alginolyticus (V. alginolyticus) | MIC (S. aureus) | MIC (B. subtilis [2]) | MIC (E. coli) | MIC (P. aeruginosa) | MIC (M. smegmatis) | MIC (C. albicans) | IC50 [3] | IC50 [4] | IC50 [5]
CO[C@H]1/C=C/O[C@@]2(C)Oc3c(C)c(O)c4c(O)c(c(/C=N/N5CCN(C)CC5)c(O)c4c3C2=O)NC(=O)/C(C)=C\C=C\[C@H](C)[C@H](O)[C@@H](C)[C@@H](O)[C@@H](C)[C@H](OC(C)=O)[C@@H]1C [Rifampicin] | 2.5 times compared to control | 2–3 cells connected | DNA condensed in one thick filament crossing the cells some with dot like shape | Cell membrane thickening | 2.5 times compared to control | 1–2 cells connected | Condensed DNA spanning the cell | Cell membrane pigmentation |  |  |  |  |  |  |  |  | 
COc1ccc(Cc2c3[n+](cc4c(OC)c(OC)ccc24)CCc2cc4c(cc2-3)OCO4)c(OC)c1OC [Compound 14, 13[(2,3,4-Trimethoxyphenyl)methyl]Berberine] |  |  |  |  |  |  |  |  | 25 µM | 50 µM | > 100 µM | > 100 µM | 25 µM | > 100 µM | > 50 µM | > 50 µM | > 50 µM
COc1ccc2c(O)c3[n+](cc2c1OC)CCc1cc2c(cc1-3)OCO2 [Compound 2, 13-hydroxyberberine] |  |  |  |  |  |  |  |  | 12.5 to 25 µM | 50 µM | > 100 µM | > 100 µM | 25 µM | > 100 µM | > 50 µM | 34.2 ± 3.8 µM | > 50 µM
CN(C)[C@@H]1C(O)=C(C(N)=O)C(=O)[C@@]2(O)C(O)=C3C(=O)c4c(O)cccc4[C@@](C)(O)[C@H]3C[C@@H]12 [Tetracycline] | 1.5–3 times compared to control | 1–3 cells connected | DNA condensed in one thin filament across the cells |  | 1.5–3 times compared to control | 1–3 cells connected | DNA condensed in one thin filament spiring the cells |  |  |  |  |  |  |  |  |  | 
COc1ccc2c(Cc3ccc(-c4nc5ccccc5s4)cc3)c3[n+](cc2c1OC)CCc1cc2c(cc1-3)OCO2 [Compound 19] |  |  |  |  |  |  |  |  | 1.5 to 3.12 µM | 1.5 µM | > 100 µM | > 100 µM | 12.5 µM | 6.25 µM | 4.92 ± 0.6 µM | 12 ± 1.3 µM | 31.2 ± 7.1 µM
COc1ccc2c(c1OC)CN1CCc3cc4c(cc3C1=C2)OCO4 [Compound 1, Dihydroberberine] |  |  |  |  |  |  |  |  | 100 µM (≈ 33.7 µg/mL) | > 100 µM | > 100 µM | > 100 µM | > 100 µM | 100 µM (≈ 33.7 µg/mL) |  |  | 
COc1ccc2c(Cc3ccc(S(N)(=O)=O)cc3)c3[n+](cc2c1OC)CCc1cc2c(cc1-3)OCO2 [Compound 10, 13-(4-Sulfamoylbenzyl)Berberine] |  |  |  |  |  |  |  |  | > 100 µM | > 100 µM | > 100 µM | > 100 µM | > 100 µM | > 100 µM |  |  | 
CO/N=C1\CN(c2nc3c(cc2F)c(=O)c(C(=O)O)cn3C2CC2)CC1CN (centres unmarked) [Gemifloxacin, reference compound] |  | Single cells | Decondensed DNA |  | 3–9 times compared to control | 1–2 cells connected | Thick condensed DNA spanning the cell |  | 0.06 µM (≈ 0.0234 µg/mL) | 0.02 µM (≈ 0.00779 µg/mL) | 0.06 µM (≈ 0.0234 µg/mL) | 0.25 µM (≈ 0.0973 µg/mL) | 2 µM (≈ 0.779 µg/mL) |  |  |  | 
COc1ccc2c(Cc3ccc(/C=C/C(=O)O)cc3)c3[n+](cc2c1OC)CCc1cc2c(cc1-3)OCO2 [Compound 22, (2E)-3-{4-[(Berberin-13-yl)methyl]phenyl}prop-2-enoic Acid] |  |  |  |  |  |  |  |  | > 100 µM | > 100 µM | > 100 µM | > 100 µM | > 100 µM | > 100 µM |  |  | 
COc1ccc2c(CC(=O)O)c3[n+](cc2c1OC)CCc1cc2c(cc1-3)OCO2 [Compound 5, 13-(Acetic Acid) Berberine] |  |  |  |  |  |  |  |  | 100 µM | 100 µM | > 100 µM | > 100 µM | 50 µM | > 100 µM |  |  | 
COc1ccc2c(Cc3ccc4c(c3)OCO4)c3[n+](cc2c1OC)CCc1cc2c(cc1-3)OCO2 [Compound 13, 13-[(2H-1,3-Benzodioxol-5-yl)methyl]Berberine] |  |  |  |  |  |  |  |  | 6.25 to 12.5 µM | 25 µM | > 100 µM | > 100 µM | 12.5 µM | 50 µM | 16.9 ± 1.5 µM | 31.4 ± 3.8 µM | > 50 µM
C=Cc1ccc(Cc2c3[n+](cc4c(OC)c(OC)ccc24)CCc2cc4c(cc2-3)OCO4)cc1 [Compound 9, 13-(4-Ethenylbenzyl)Berberine] |  |  |  |  |  |  |  |  | 3.12 µM | 12.5 µM | > 100 µM | > 100 µM | 6.25 µM | 50 µM | 12.8 ± 1.6 µM | 24.8 ± 3.6 µM | > 50 µM
COc1ccc2c(Cc3ccc(C#N)cc3)c3[n+](cc2c1OC)CCc1cc2c(cc1-3)OCO2 [Compound 7, 13-(4-Cyanobenzyl)Berberine] |  |  |  |  |  |  |  |  | 100 µM | > 100 µM | > 100 µM | > 100 µM | 100 µM | 100 µM |  |  | 
COc1ccc2c(Cc3ccc(C=O)cc3)c3[n+](cc2c1OC)CCc1cc2c(cc1-3)OCO2 [Compound 12, 13-(4-Formylbenzyl)Berberine] |  |  |  |  |  |  |  |  | 100 µM | > 100 µM | > 100 µM | > 100 µM | 100 µM | > 100 µM |  |  | 
COc1ccc2c(c1OC)C(CC(C)=O)N1CCc3cc4c(cc3C1=C2)OCO4 (centres unmarked) [Compound 3, 8-acetonyl dihydroberberine] |  |  |  |  |  |  |  |  | 100 µM (≈ 39.3 µg/mL) | > 100 µM | > 100 µM | > 100 µM | 100 µM (≈ 39.3 µg/mL) | 100 µM (≈ 39.3 µg/mL) |  |  | 
COc1ccc2c(Cc3ccc(C=NO)cc3)c3[n+](cc2c1OC)CCc1cc2c(cc1-3)OCO2 [Compound 21, N-({4-[(Berberin-13-yl)methyl]phenyl}methylidene)hydroxylamine] |  |  |  |  |  |  |  |  | 50 µM | 100 µM | > 100 µM | > 100 µM | 50 µM | > 100 µM |  |  | 
CC1(C)S[C@@H]2[C@H](NC(=O)[C@H](N)c3ccc(O)cc3)C(=O)N2[C@H]1C(=O)O [Amoxicillin] | 1.5 times compared to control | 2–4 cells connected | 2 condensed DNA in each cell |  | 1–3 times compared to control | 1–2 cells connected | Thick condensed and decondensed DNA spanning the cell | Cell membrane thickening |  |  |  |  |  |  |  |  | 
C[C@@H]1[C@H](O)[C@@H](C)/C=C/C=C/C=C/C=C/C=C/C=C/C=C/[C@H](O[C@@H]2O[C@H](C)[C@@H](O)[C@H](N)[C@@H]2O)C[C@@H]2O[C@](O)(C[C@@H](O)C[C@@H](O)[C@H](O)CC[C@@H](O)C[C@@H](O)CC(=O)O[C@H]1C)C[C@H](O)[C@H]2C(=O)O [Amphotericin B, reference compound] |  |  |  |  |  |  |  |  |  |  |  |  |  | 1.1 µM (≈ 1.02 µg/mL) |  |  | 
